From article PMC8752738, “A propolis-derived small molecule ameliorates metabolic syndrome in obese mice by targeting the CREB/CRTC2 transcriptional complex” (Nature Communications, 2022)
Where “and” joins values, the source holds several entries; their conditions need not be identical. Equal entries are not always repeated.

Tested on: tissue mRNA levels
Experiment: Quantitative PCR of tissue gene expression in treated mice
Format: in vivo, mouse
Parameters: key to mRNA levels Scap / mRNA levels Insig1 / mRNA levels Ldlr / mRNA levels Mttp / mRNA levels Atgl / mRNA levels Tnfaip2 / mRNA levels Rxra / mRNA levels Srebf1 / mRNA levels Ucp2: mRNA level normalized to ribosomal L32 mRNA (internal control)
Settings: for relative mRNA levels SREBP1a, group mean (Mean 2) / relative mRNA levels SREBP2, group mean (Mean 2) / relative mRNA levels SREBP1c, group mean (Mean 2) / relative mRNA levels Srebf-1a / relative mRNA levels Srebf-1c / relative mRNA levels Srebf-2: Figure 6a; for relative mRNA levels SREBP1a, group mean (Mean 2) / relative mRNA levels SREBP2, group mean (Mean 2) / relative mRNA levels SREBP1c, group mean (Mean 2): N=6; for relative mRNA levels SREBP1a, group mean (Mean 2): VEH mean 0.9485; for relative mRNA levels SREBP2, group mean (Mean 2): VEH mean 1.001; for relative mRNA levels SREBP1c, group mean (Mean 2): VEH mean 1.004; for relative mRNA levels Srebf-1a / relative mRNA levels Srebf-1c / relative mRNA levels Srebf-2: relative to VEH
Experimental: Total RNA from cells and tissues was extracted by Trizol (Invitrogen) and reverse-transcribed into cDNA using the prime script RT reagent kit with gDNA eraser (Takara). The mRNA levels were determined using the SYBR-green PCR kit (Takara) with ABIPRISM 7900HT Sequence detector (ABI) according to the manufacturer’s protocol. The quantitative qPCR primers used in this work are listed in Supplementary Table 1. Ribosomal L32 mRNA levels were used as an internal control.

[1] = DIO mice, i.p. 20 mg/kg, 5 weeks
[2] = APC 10mg/kg, individual animals
[3] = APC 20mg/kg, individual animals
[4] = Figure 6c, liver of DIO mice, individual animals
[5] = Figure 6e, BAT genes in DIO, individual animals
[6] = Figure 6e, group mean of APC-treated mice
[7] = Figure 6f, CRTC2KO mice, oral APC
[8] = Figure 6f, CRTC2KO mice, oral APC, group mean, N 6

## CC(C)=CCc1cc(C=CC(=O)O)cc(CC=C(C)C)c1O [APC, 3,5-diprenyl-4-hydroxycinnamic acid]
C57 WT mice, one oral dose 20 mg/kg
  mRNA levels of CREB/CRTC2 regulated genes in muscle, brain, spleen, kidney, small intestine, pancreas: did not significantly affect
CRTC2KO mice, Met 200mg/kg or APC-20
  Mean Diff. (Veh. vs. treated; head of the quantity not shown, section just before Figure 7h): -0.1036
DIO and db/db mice, i.p. 20 mg/kg, 5 weeks
  hepatic mRNA levels of G6pc, Pck1 and Pgc-1α: remarkably reduced
DIO mice
  Pgc-1α and Pgc-1β expression in liver, white and brown adipose tissues: significantly reduced
  hepatic mRNA levels of SREBP target genes: reduced
[1]
  liver mRNA levels of Lxra: decreased
  liver mRNA levels of Pparα, Pparγ and Rxrα: little effect
DIO mice, i.p. 5 weeks
  hepatic mRNA levels of Srebp-1a, 1c and 2: significantly decreased
APC 10mg/kg
  relative mRNA levels SREBP1a, group mean (Mean 2): 0.6192
  relative mRNA levels SREBP2, group mean (Mean 2): 0.7198
  relative mRNA levels SREBP1c, group mean (Mean 2): 0.5199
[2]
  relative mRNA levels Srebf-1a: 0.7632 and 0.606 and 0.6752 and 0.5408 and 0.5316 and 0.5987
  relative mRNA levels Srebf-1c: 0.3899 and 0.7333 and 0.3575 and 0.4477 and 0.6292 and 0.5618
  relative mRNA levels Srebf-2: 0.89 and 0.7028 and 0.7151 and 0.6142 and 0.6241 and 0.7725
APC 20mg/kg
  relative mRNA levels SREBP1a, group mean (Mean 2): 0.576
  relative mRNA levels SREBP2, group mean (Mean 2): 0.6534
  relative mRNA levels SREBP1c, group mean (Mean 2): 0.4898
[3]
  relative mRNA levels Srebf-1a: 0.7402 and 0.4743 and 0.5973 and 0.6221 and 0.5888 and 0.4336
  relative mRNA levels Srebf-1c: 0.4905 and 0.5691 and 0.5139 and 0.3623 and 0.4504 and 0.5527
  relative mRNA levels Srebf-2: 0.7803 and 0.8192 and 0.5739 and 0.6729 and 0.5114 and 0.5627
Figure 6c, liver of DIO mice, group mean, Mean of VEH 0.9497
  mRNA levels Pgc-1a, Mean of APC: 0.7169
Figure 6c, liver of DIO mice, group mean, Mean of VEH 0.9581
  mRNA levels Hmgcs, Mean of APC: 0.6963
Figure 6c, liver of DIO mice, group mean, Mean of VEH 0.9596
  mRNA levels Pgc-1b, Mean of APC: 0.6511
Figure 6c, liver of DIO mice, group mean, Mean of VEH 0.9821
  mRNA levels Acl, Mean of APC: 0.5548
Figure 6c, liver of DIO mice, group mean, Mean of VEH 0.983
  mRNA levels Insig1, Mean of APC: 1.256
Figure 6c, liver of DIO mice, group mean, Mean of VEH 0.9914
  mRNA levels Ldlr, Mean of APC: 0.5526
Figure 6c, liver of DIO mice, group mean, Mean of VEH 0.9918
  mRNA levels ApoE, Mean of APC: 0.7552
Figure 6c, liver of DIO mice, group mean, Mean of VEH 0.995
  mRNA levels Acsl1, Mean of APC: 0.6996
Figure 6c, liver of DIO mice, group mean, Mean of VEH 1.003
  mRNA levels Insig2b, Mean of APC: 1.315
Figure 6c, liver of DIO mice, group mean, Mean of VEH 1.007
  mRNA levels Lxra, Mean of APC: 0.5396
Figure 6c, liver of DIO mice, group mean, Mean of VEH 1.031
  mRNA levels Cel, Mean of APC: 2.279
Figure 6c, liver of DIO mice, group mean, Mean of VEH 1.033
  mRNA levels Acc, Mean of APC: 0.6639
Figure 6c, liver of DIO mice, group mean, Mean of VEH 1.034
  mRNA levels Pcsk9, Mean of APC: 0.8062
Figure 6c, liver of DIO mice, group mean, Mean of VEH 1.037
  mRNA levels Cpt1, Mean of APC: 2.106
Figure 6c, liver of DIO mice, group mean, Mean of VEH 1.041
  mRNA levels Mttp, Mean of APC: 0.553
Figure 6c, liver of DIO mice, group mean, Mean of VEH 1.044
  mRNA levels Scd1, Mean of APC: 1.532
Figure 6c, liver of DIO mice, group mean, Mean of VEH 1.051
  mRNA levels Lipg, Mean of APC: 1.548
Figure 6c, liver of DIO mice, group mean, Mean of VEH 1.052
  mRNA levels ApoB, Mean of APC: 0.8089
Figure 6c, liver of DIO mice, group mean, Mean of VEH 1.059
  mRNA levels Hmgcl, Mean of APC: 0.5112
Figure 6c, liver of DIO mice, group mean, Mean of VEH 1.06
  mRNA levels Scap, Mean of APC: 0.7595
Figure 6c, liver of DIO mice, group mean, Mean of VEH 1.072
  mRNA levels Mgll, Mean of APC: 1.87
Figure 6c, liver of DIO mice, group mean, Mean of VEH 1.142
  mRNA levels Fasn, Mean of APC: 0.5649
[4]
  mRNA levels Acc: 0.6012 and 0.6553 (2×) and 0.7255 and 0.7608 and 0.5855
  mRNA levels Acl: 0.303 and 0.3204 and 0.7174 and 0.7065 and 0.7574 and 0.524
  mRNA levels Acsl1: 0.5351 and 0.5673 and 0.8699 and 0.7501 and 0.6417 and 0.8334
  mRNA levels ApoB: 0.8489 and 0.8438 and 0.8351 and 0.7306 and 0.803 and 0.7922
  mRNA levels ApoE: 0.7234 and 0.6714 and 0.8902 and 0.7927 and 0.794 and 0.6594
  mRNA levels Cel: 1.61 and 1.758 and 2.648 and 2.653 and 2.573 and 2.434
  mRNA levels Cpt1: 2.1427 and 2.6 and 2.578 and 1.766 and 1.996 and 1.554
  mRNA levels Fasn: 0.5582 and 0.6145 and 0.8825 and 0.8943 and 0.221 and 0.219
  mRNA levels Hmgcl: 0.8031 and 0.3302 and 0.7226 and 0.5347 and 0.468 and 0.2089
  mRNA levels Hmgcs: 0.6002 and 0.7721 and 0.6122 and 0.7412 and 0.7304 and 0.7219
  mRNA levels Insig1: 1.154 and 1.297 and 1.198 and 1.324 and 1.22 and 1.341
  mRNA levels Insig2b: 1.5012 and 1.204 and 1.275 and 1.326 and 1.226 and 1.358
  mRNA levels Ldlr: 0.5776 and 0.5891 and 0.5493 and 0.4914 and 0.6354 and 0.4723
  mRNA levels Lipg: 1.701 and 1.759 and 1.656 and 1.597 and 1.253 and 1.321
  mRNA levels Lxra: 0.4169 and 0.5629 and 0.5095 and 0.7537 and 0.4614 and 0.533
  mRNA levels Mgll: 1.478 and 2.215 and 1.692 and 2.155 and 1.663 and 2.019
  mRNA levels Mttp: 0.5875 and 0.5564 and 0.479 and 0.4246 and 0.6126 and 0.6576
  mRNA levels Pcsk9: 0.8854 and 0.7972 and 0.6933 and 0.8757 and 0.803 and 0.7825
  mRNA levels Pgc-1a: 0.841 and 0.8137 and 0.7443 and 0.6176 and 0.7797 and 0.5053
  mRNA levels Pgc-1b: 0.6848 and 0.6024 and 0.8301 and 0.5369 and 0.6396 and 0.6129
  mRNA levels Scap: 0.7134 and 0.6924 and 0.8986 and 0.7526 and 0.8965 and 0.6035
  mRNA levels Scd1: 1.593 and 1.385 and 1.755 and 1.2873 and 1.57 and 1.603
Figure 6e
  relative mRNA levels Cpt1, Difference (Mean of VEH - Mean of APC): -0.4965
  relative mRNA levels Glut4, Difference (Mean of VEH - Mean of APC): -0.8396
  relative mRNA levels Hsl, Difference (Mean of VEH - Mean of APC): -0.512
  relative mRNA levels Mgl1, Difference (Mean of VEH - Mean of APC): -0.489
  relative mRNA levels Pgc-1α, Difference (Mean of VEH - Mean of APC): 0.4001
  relative mRNA levels Pgc-1β, Difference (Mean of VEH - Mean of APC): 0.2648
  relative mRNA levels Scd1, Difference (Mean of VEH - Mean of APC): 0.2529
  relative mRNA levels Ucp1, Difference (Mean of VEH - Mean of APC): 0.6029
  relative mRNA levels Ucp2, Difference (Mean of VEH - Mean of APC): -0.7752
  relative mRNA levels Ucp3, Difference (Mean of VEH - Mean of APC): -0.7811
Figure 6e, BAT genes in DIO, group mean, Mean of VEH 1.022
  mRNA levels Rxrα, Mean of APC: 0.997
Figure 6e, BAT genes in DIO, group mean, Mean of VEH 1.045
  mRNA levels Pparγ, Mean of APC: 1.136
Figure 6e, BAT genes in DIO, group mean, Mean of VEH 1.047
  mRNA levels Pparα, Mean of APC: 1.002
Figure 6e, BAT genes in DIO, group mean, Mean of VEH 1.079
  mRNA levels Srebf-1c, Mean of APC: 0.67
[5]
  mRNA levels Cpt1: 1.405 and 1.301 and 1.366 and 1.861 and 1.273 and 1.67
  mRNA levels Glut4: 2.222 and 2.223 and 2.091 and 1.366 and 1.861 and 1.914
  mRNA levels Hsl: 1.929 and 1.285 and 1.044 and 1.492 and 1.691 and 1.784
  mRNA levels Mgl1: 1.571 and 1.671 and 1.448 and 1.19 and 1.394 and 1.429
  mRNA levels Pgc-1a: 0.4882 and 0.6962 and 0.7342 and 0.6823 and 0.3242 and 0.5895
  mRNA levels Pgc-1b: 0.7936 and 0.7877 and 0.8205 and 0.6233 and 0.5976 and 0.7915
  mRNA levels Ppara: 0.957 and 1.069 and 1.282 and 0.4348 and 0.8215 and 1.448
  mRNA levels Pparg: 1.223 and 1.057 and 1.279 and 0.9002 and 1.182 and 1.178
  mRNA levels Rxra: 1.299 and 0.7585 and 0.6344 and 1.152 and 1.145 and 0.9935
  mRNA levels Scd1: 0.7542 and 0.5583 and 0.6317 and 0.6691 and 0.5321 and 0.7971
  mRNA levels Srebf1: 0.76 and 0.6196 and 0.6214 and 0.595 and 0.7194 and 0.7042
  mRNA levels Ucp1: 0.4272 and 0.4661 and 0.4353 and 0.3244 and 0.4398 and 0.6531
  mRNA levels Ucp2: 1.948 and 2.049 and 1.871 and 1.366 and 1.861 and 1.31
  mRNA levels Ucp3: 2.385 and 1.61 and 1.317 and 1.964 and 1.366 and 1.861
[6]
  relative mRNA levels Cpt1, Mean of APC: 1.479
  relative mRNA levels Glut4, Mean of APC: 1.946
  relative mRNA levels Hsl, Mean of APC: 1.538
  relative mRNA levels Mgl1, Mean of APC: 1.451
  relative mRNA levels Pgc-1α, Mean of APC: 0.5858
  relative mRNA levels Pgc-1β, Mean of APC: 0.7357
  relative mRNA levels Scd1, Mean of APC: 0.6571
  relative mRNA levels Ucp1, Mean of APC: 0.4576
  relative mRNA levels Ucp2, Mean of APC: 1.734
  relative mRNA levels Ucp3, Mean of APC: 1.751
[7]
  mRNA of Srebf-1c, Mean Diff. APC - VEH: 0.1559
  mRNA of Srebf-2, Mean Diff. APC - VEH: -0.03887
[8]
  mRNA of Srebf-1c, Mean 1 (APC): 0.6887
  mRNA of Srebf-2, Mean 1 (APC): 0.7827
